Measurements as given in patent US11230556B2 (Merck Sharp & Dohme Corp., priority 2016, dated 2022).

Each compound was assayed against T1, human M4 muscarinic acetylcholine receptor (Homo sapiens, UniProt P08173) (assay: human FLIPR-based M4 PAM assay (CHO-K1 cells with human M4 receptor and Gαqi5, calcium dye fluorescence, acetylcholine at 20% of maximum response)). Conditions: inflection point (IP) of 4 parameter logistic dose response curve, human M4 receptor + Gαqi5, FLIPR Tetra.
T1 construct: expressed in transfected cells; host or cells: CHO-K1
T1 sequence (P08173 1-479): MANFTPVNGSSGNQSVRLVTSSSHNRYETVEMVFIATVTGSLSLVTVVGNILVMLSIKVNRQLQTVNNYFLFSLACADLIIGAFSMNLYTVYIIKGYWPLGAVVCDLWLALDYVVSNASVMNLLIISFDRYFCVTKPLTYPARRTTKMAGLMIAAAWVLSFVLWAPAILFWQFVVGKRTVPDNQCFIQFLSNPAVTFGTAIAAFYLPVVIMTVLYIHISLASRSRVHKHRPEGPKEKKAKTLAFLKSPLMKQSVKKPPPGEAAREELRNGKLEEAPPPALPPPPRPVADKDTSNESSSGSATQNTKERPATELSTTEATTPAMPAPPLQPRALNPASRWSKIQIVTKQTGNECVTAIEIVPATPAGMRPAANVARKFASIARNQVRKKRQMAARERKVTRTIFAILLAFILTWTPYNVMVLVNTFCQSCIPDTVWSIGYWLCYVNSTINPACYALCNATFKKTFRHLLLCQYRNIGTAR
Assay type: cell-based
Description: In a typical experiment the M4 muscarinic acetylcholine receptor modulating activity of the compounds of the present invention was determined in accordance with the following experimental method. CHO-K1 cells stably transfected with human M4 receptor and chimeric G-protein Gαqi5 (Coward P, et al., Analytical Biochemistry, 270:242-248 (1999)) are thawed from liquid N2 storage, resuspended in growth medium, plated in black, clear bottom 384 well plates, and incubated 16-20 hours at 37° C., 5% CO2. On the day of assay, growth medium is removed, the cells are washed 2 times with wash buffer, and cells are incubated in dye loading buffer at 37° C., 5% CO2 for ˜1 hour. Following dye loading the cell plates are placed in a FLIPR Tetra instrument and while monitoring dye fluorescence (excitation […]), 10 uL of test substance at increasing concentrations is added, and fluorescence values are recorded for 4 min. Next, 10 uL of acetylcholine is added (final concentration calculated so as to achieve 20% of the maximum acetycholine response), and the fluorescence reading is continued for 3.5 min. In some cases, a third addition of acetylcholine (final concentration calculated to achieve 70% of the maximal acetylcholine response) is performed. The resulting dose response curves are fit to a 4 parameter logistic equation and the final result is determined as the inflection point (IP) of the curve
CHO-K1 cells stably transfected with human M4 receptor and chimeric G-protein Gαqi5 are thawed from liquid N2 storage, resuspended in growth medium, plated in black, clear bottom 384 well plates, and incubated 16-20 hours at 37° C., 5% CO2.
On the day of assay, growth medium is removed, the cells are washed 2 times with wash buffer, and cells are incubated in dye loading buffer at 37° C., 5% CO2 for ˜1 h. Following dye loading the cell plates are placed in a FLIPR Tetra instrument and while monitoring dye fluorescence ([…]), 10 uL of test substance at increasing concentrations is added, and fluorescence values are recorded for 4 min. Next, 10 uL of acetylcholine is added (final concentration calculated so as to achieve 20% of the maximum acetycholine response), and the fluorescence reading is continued for 3.5 min. In some cases, a third addition of acetylcholine (final concentration calculated to achieve 70% of the maximal acetylcholine response) is performed.

EC50 [nM] | Compound
212 | COc1ccc(OC2CCN(c3nc4c(cc3C)CN(C(=O)C3COC3)C4)CC2)cn1 [Example 55, (2-(4-((6-methoxypyridin-3-yl)oxy)piperidin-1-yl)-3-methyl-5,7-dihydro-6H-pyrrolo[3,4-b]pyridin-6-yl)(oxetan-3-yl)methanone]
221 | COCCC(=O)N1Cc2cc(C)c(N3CCC(Oc4ccc(OC)nc4)CC3)nc2C1 [Example 56, 3-methoxy-1-(2-(4-((6-methoxypyridin-3-yl)oxy)piperidin-1-yl)-3-methyl-5,7-dihydro-6H-pyrrolo[3,4-b]pyridin-6-yl)propan-1-one]
378 | COc1ccc(OC2CCN(c3nc4c(cc3C)CN(C(=O)C3CC3(F)F)C4)CC2)cn1 (centres unmarked) [Example 57, (2,2-difluorocyclopropyl)(2-(4-((6-methoxypyridin-3-yl)oxy)piperidin-1-yl)-3-methyl-5,7-dihydro-6H-pyrrolo[3,4-b]pyridin-6-yl)methanone]
168 | COc1ccc(OC2CCN(c3nc4c(cc3C)CN(S(=O)(=O)C3CC3)C4)CC2)cn1 [Example 58, 6-(Cyclopropylsulfonyl)-2-(4-((6-methoxypyridin-3-yl)oxy)piperidin-1-yl)-3-methyl-6,7-dihydro-5H-pyrrolo[3,4-b]pyridine]
125 | COc1ccc(OC2CCN(c3nc4c(cc3C)CN(S(C)(=O)=O)C4)CC2)cn1 [Example 59, 2-(4-((6-methoxypyridin-3-yl)oxy)piperidin-1-yl)-3-methyl-6-(methylsulfonyl)-6,7-dihydro-5H-pyrrolo[3,4-b]pyridine]
20 | Cc1cc2c(nc1N1CCC(Oc3ccccc3)CC1)CN(S(C)(=O)=O)C2 [Example 60, 3-methyl-6-(methylsulfonyl)-2-(4-phenoxypiperidin-1-yl)-6,7-dihydro-5H-pyrrolo[3,4-b]pyridine]
156 | COC(=O)N1Cc2cc(C)c(N3CCC(Oc4ccc(OC)nc4)CC3)nc2C1 [Example 61, methyl 2-(4-((6-methoxypyridin-3-yl)oxy)piperidin-1-yl)-3-methyl-5,7-dihydro-6H-pyrrolo[3,4-b]pyridine-6-carboxylate]
114 | COC(=O)N1Cc2cc(C)c(N3CCC(Oc4ccccc4)CC3)nc2C1 [Example 62, methyl 3-methyl-2-(4-phenoxypiperidin-1-yl)-5,7-dihydro-6H-pyrrolo[3,4-b]pyridine-6-carboxylate]
368 | COc1ccc(OC2CCN(c3nc4[nH]ncc4cc3C)CC2)cn1 [Example 63, 6-(4-((6-Methoxypyridin-3-yl)oxy)piperidin-1-yl)-5-methyl-1H-pyrazolo[3,4-b]pyridine]
242 | COc1ccc(OC2CCN(c3nc4cn(C)nc4cc3C)CC2)cn1 [Example 64, 5-(4-((6-Methoxypyridin-3-yl)ox)piperidin-1-yl)-2,6-dimethyl-2H-pyrazolo[4,3-b]pyridine]
1650 | COc1ccc(OC2CCN(c3nc4c(C)n[nH]c4cc3C)CC2)cn1 [Example 65, 5-(4-((6-Methoxypyridin-3-yl)oxy)piperidin-1-yl)-3,6-dimethyl-1H-pyrazolo [4,3-b]pyridine]
1380 | COc1ccc(OC2CCN(c3nc4cnn(C)c4cc3C)CC2)cn1 [Example 66, 5-(4-((6-methoxypyridin-3-yl)oxy)piperidin-1-yl)-1,6-dimethyl-1H-pyrazolo[4,3-b]pyridine]
765 | COc1ccc(OC2CCN(c3nc4nccn4cc3C)CC2)cn1 [Example 67, 7-(4-((6-methoxypyridin-3-yl)oxy)piperidin-1-yl)-6-methylimidazo[1,2-a]pyrimidine]
42 | COc1ccc(OC2CCN(c3nc4c(cc3C)C(=O)CC4)CC2)cn1 [Example 69, 2-(4-((6-Methoxypyridin-3-yl)oxy)piperidin-1-yl)-3-methyl-6,7-dihydro-5H-cyclopenta[b]pyridin-5-one]
63 | COc1ccc(OC2CCN(c3nc4c(cc3C)C(=O)C(F)(F)C4)CC2)cn1 [Example 70, 6,6-difluoro-2-(4-((6-methoxypyridin-3-yl)oxy)piperidin-1-yl)-3-methyl-6,7-dihydro-5H-cyclopenta[b]pyridin-5-one]
1510 | COc1ccc(OC2CCN(c3nc4c(cc3C)CCC4)CC2)cn1 [Example 72, 2-(4-((6-Methoxypyridin-3-yl)oxy)piperidin-1-yl)-3-methyl-6,7-dihydro-5H-cyclopenta[b]pyridine]
292 | COc1ccc(OC2CCN(c3nc4c(cc3C)C(=O)C(C)(C)C4)CC2)cn1 [Example 73, 2-(4-((6-Methoxypyridin-3-yl)oxy)piperidin-1-yl)-3,6,6-trimethyl-6,7-dihydro-5H-cyclopenta[b]pyridin-5-one]
119 | COc1ccc(OC2CCN(c3nc4c(cc3C)C(=O)C(C)C4)CC2)cn1 (centres unmarked) [Example 74, 2-(4-((6-Methoxypyridin-3-yl)oxy)piperidin-1-yl)-3,6-dimethyl-6,7-dihydro-5H-cyclopenta[b]pyridin-5-one]
165 | COc1ccc(OC2CCN(c3nc4c(cc3C)S(=O)(=O)NC4)CC2)cn1 [Example 75, 5-(4-((6-Methoxypyridin-3-yl)oxy)piperidin-1-yl)-6-methyl-2,3-dihydroisothiazolo[4,5-b]pyridine 1,1-dioxide]
221 | Cc1cc2c(nc1N1CCC(Oc3cccc(C#N)c3)CC1)CNS2(=O)=O [Example 76, 3-((1-(6-methyl-1,1-dioxido-2,3-dihydroisothiazolo[4,5-b]pyridin-5-yl)piperidin-4-yl)oxy)benzonitrile]
275 | Cc1cc2c(nc1N1CCC(Oc3ccccc3)CC1)CNS2(=O)=O [Example 77, 6-methyl-5-(4-phenoxypiperidin-1-yl)-2,3-dihydroisothiazolo[4,5-b]pyridine 1,1-dioxide]
1170 | COc1ccc(OC2CCN(c3nc4[nH]c(=O)[nH]c4cc3C)CC2)cn1 [Example 79, 5-(4-((6-Methoxypyridin-3-yl)oxy)piperidin-1-yl)-6-methyl-1,3-dihydro-2H-imidazo[4,5-b]pyridin-2-one]
3090 | COc1ccc(OC2CCN(c3nc4nnc(C(F)(F)F)n4cc3C)CC2)cn1 [Example 80, 7-(4-((6-Methoxypyridin-3-yl)oxy)piperidin-1-yl)-6-methyl-3-(trifluoromethyl)-[1,2,4]triazolo[4,3-a]pyrimidine]
92 | COc1ccc(OC2CCN(c3nc4c(cc3C)C(=O)N3CCOCC43)CC2)cn1 (centres unmarked) [Example 82, 2-(4-((6-methoxypyridin-3-yl)oxy)piperidin-1-yl)-3-methyl-7,8,10,10a-tetrahydro-5H-pyrido[2′,3′:3,4]pyrrolo[2,1-c][1,4]oxazin-5-one]
25 | (R)-2-(4-((1,3-dihydroisobenzofuran-5-yl)oxy)piperidin-1-yl)-3-methyl-8,9,10,10a-tetrahydropyrido[2′,3′:3,4]pyrrolo[1,2-a]pyrazin-5(7H)-one and (S)-2-(4-((1,3-dihydroisobenzofuran-5-yl)oxy)piperidin-1-yl)-3-methyl-8,9,10,10a-tetrahydropyrido[2′,3′:3,4]pyrrolo[1,2-a]pyrazin-5(7H)-one [Example 83B]
267 | (R)-2-(4-((6-Methoxypyridin-3-yl)oxy)piperidin-1-yl)-3,7-dimethylfuro[3,4-b]pyridin-5(7H)-one and (S)-2-(4-((6-methoxypyridin-3-yl)oxy)piperidin-1-yl)-3,7-dimethylfuro[3,4-b]pyridin-5(7H)-one [Example 29A]
